Experimental data as given in PMC10143423, “Endoplasmic Reticulum-Targeting Two-Photon Fluorescent Probe for CYP1A Activity and Its Imaging Application in Endoplasmic Reticulum Stress” (Molecules, 2023).

Experiments:
A549 cells [1] = assay: CYP1A activity imaged by ERNM in DTT-induced ER stress cell model; assay type: cell-based; details: DTT 2.5 mM for 0, 1, 2, 4 h, imaged with ERNM 25 μM
Method: (§1) A549 cells were grown in RPMI-1640 culture medium (containing 10% FBS). A549 cells were seeded and incubated at 37 °C overnight. Then, A549 cells divided into different experimental groups were treated with DTT (dithiothreitol, the in-system concentration of DTT in the incubation system is 2.5 mM) for 0, 1, 2, and 4 h. The adherent cells were washed, and ERNM was added into the cell culture media (the in-system concentration of ERNM in the incubation system is 25 μM) and incubated for 60 min. Then, the cells were rinsed with PBS for at least 3 times to remove the extracellular probe. The cell images were obtained using confocal microscope (Olympus, FV1000), and the excitation wavelength was set at 800 nm and fluorescent emission windows of 520–560 nm.

CYP1A1 = target: T1, CYP1A1 (Homo sapiens, UniProt P04798); assay: ERNM O-demethylation enzyme kinetics in recombinant CYP1A1; assay type: biochemical
T1 construct: purchased BD Biosciences (Woburn, MA, USA)
T1 sequence (P04798 1-512): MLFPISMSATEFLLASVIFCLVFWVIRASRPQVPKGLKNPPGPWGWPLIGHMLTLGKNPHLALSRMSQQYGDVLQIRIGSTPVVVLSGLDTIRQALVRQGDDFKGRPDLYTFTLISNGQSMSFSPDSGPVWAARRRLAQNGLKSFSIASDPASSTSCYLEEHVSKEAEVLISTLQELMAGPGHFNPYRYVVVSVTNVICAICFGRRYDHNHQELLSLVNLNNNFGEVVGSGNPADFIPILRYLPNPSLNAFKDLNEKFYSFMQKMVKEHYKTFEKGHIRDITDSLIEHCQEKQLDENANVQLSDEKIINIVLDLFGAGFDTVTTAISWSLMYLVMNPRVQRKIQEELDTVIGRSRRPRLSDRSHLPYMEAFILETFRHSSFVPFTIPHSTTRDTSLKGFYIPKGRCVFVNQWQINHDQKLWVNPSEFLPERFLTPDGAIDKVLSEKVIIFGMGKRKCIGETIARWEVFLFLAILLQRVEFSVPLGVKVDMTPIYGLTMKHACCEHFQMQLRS
Method: (§2) The incubation sample consisted of NADPH-generating system (including NADP^+, magnesium chloride, glucose-6-phosphate, and glucose-6-phosphate dehydrogenase), and human liver microsomes or recombinant human CYP enzyme in potassium phosphate buffer (100 mM, pH 7.4). The total volume of the incubation mixture is 200 μL. Fluorescent substrate was dissolved in DMSO, and was pre-diluted to the working concentrations. If necessary, blank samples without NADPH or without enzymes will be set up as negative controls. The incubation reaction was initiated by adding NADP^+ after pre-incubation at 37 °C for 3 min. In addition, ice acetonitrile (100 µL) was added into the incubation samples for terminating the reaction progress. Briefly, CYP1A1 (5 nM) or CYP1A2 (5 nM) were incubated with ERNM (1, 5, 10, 15, 50, 100, 200 μM) in 200 μL of the incubation mixture in the presence of NADPH-generating systems. After incubation for 30 min, the dealkylated metabolite was measured by quantifying the intensity of fluorescence signal at 558 nm that was excited at 450 nm. Data were analyzed using GraphPad Prism 8.0 (GraphPad Software, Inc., San Diego, CA, USA).

[2] = tested on: recombinant human CYP isoenzymes; assay: Fluorescence response of ERNM toward various recombinant human CYPs; assay type: biochemical; details: CYPs 15 nM, ERNM 10 μM, 30 min, 37 °C, fluorescence 558 nm
Method: The incubation sample consisted of NADPH-generating system (including NADP^+, magnesium chloride, glucose-6-phosphate, and glucose-6-phosphate dehydrogenase), and human liver microsomes or recombinant human CYP enzyme in potassium phosphate buffer (100 mM, pH 7.4). The total volume of the incubation mixture is 200 μL. Fluorescent substrate was dissolved in DMSO, and was pre-diluted to the working concentrations. If necessary, blank samples without NADPH or without enzymes will be set up as negative controls. The incubation reaction was initiated by adding NADP^+ after pre-incubation at 37 °C for 3 min. […]
To reveal the enzyme specificity for ERNM, the human recombinant CYP enzymes including CYP1A1, CYP1A2, CYP1B1, CYP2A6, CYP2A13, CYP2B6, CYP2C8, CYP2C9, CYP2C18, CYP2C19, CYP2D6, CYP2E1, CYP2J2, CYP3A4, CYP3A5, CYP4A11, CYP4F2, CYP4F3, and CYP4F12 (15 nM) were incubated with ERNM (the in-system concentration of ERNM in the incubation system is 10 μM) in 200 μL of the incubation mixture in the presence of NADPH-generating systems. After incubation for 30 min at 37 °C, the dealkylated metabolite was measured by quantifying the intensity of fluorescence signal at 558 nm that was excited at 450 nm. Data were analyzed using GraphPad Prism 8.0 (GraphPad Software, Inc., San Diego, CA, USA).

A549 cells [3] = assay: Colocalization of ERNM with ER-Tracker in living cells; assay type: cell-based; details: co-incubated with ER-Tracker Red, two-photon excitation
Method: The systematic evaluation of ERNM confirmed its application in complex biosystems, subsequent work is related to the investigation of the subcellular localization of ERNM in living cells. Briefly, ERNM was co-incubated with a commercial ER-Tracker (red) in A549 cells, and then imaged under two-photon (ERNM) and single-photon (ER-Tracker) excitation conditions using confocal fluorescence microscope.
as §1

CYP1A2 = target: T2, CYP1A2 (Homo sapiens, UniProt P05177); assay: ERNM O-demethylation enzyme kinetics in recombinant CYP1A2; assay type: biochemical
T2 construct: purchased BD Biosciences (Woburn, MA, USA)
T2 sequence (P05177 1-516): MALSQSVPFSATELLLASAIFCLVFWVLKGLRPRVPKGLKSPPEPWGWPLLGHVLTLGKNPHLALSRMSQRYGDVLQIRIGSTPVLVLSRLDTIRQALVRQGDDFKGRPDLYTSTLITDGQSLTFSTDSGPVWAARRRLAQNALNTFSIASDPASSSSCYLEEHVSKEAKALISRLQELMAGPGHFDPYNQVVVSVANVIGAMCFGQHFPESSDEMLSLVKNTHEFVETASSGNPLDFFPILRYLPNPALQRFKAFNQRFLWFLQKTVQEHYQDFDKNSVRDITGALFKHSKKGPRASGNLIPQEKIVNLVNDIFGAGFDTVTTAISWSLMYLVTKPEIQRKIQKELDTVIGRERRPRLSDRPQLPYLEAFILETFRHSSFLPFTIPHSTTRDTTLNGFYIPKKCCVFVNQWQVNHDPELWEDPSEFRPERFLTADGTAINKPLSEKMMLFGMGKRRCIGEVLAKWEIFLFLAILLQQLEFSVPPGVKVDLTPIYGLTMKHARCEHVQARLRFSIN
Method: as §2

CYP1A = assay: Inhibition of ERNM O-demethylation in human liver microsomes by selective CYP inhibitors; assay type: biochemical; details: inhibitor 2.5 μM, ERNM 10 μM, HLM, fluorescence 558 nm
Method: The incubation mixture is 200 μL. […] Inhibition by TEPA for CYP2B6 were examined by adding ERNM after pre-incubation with NADPH-generating system at 37 °C for 30 min. […] In addition, the residual activity of samples was calculated by the percentage of fluorescence signal for the chemical inhibition group to the control group, with the absence of specific inhibitors. Data were analyzed using GraphPad Prism 8.0 (GraphPad Software, Inc., San Diego, CA, USA).

[4] = substrate: COc1ccc2c3c(cccc13)C(=O)N(CCNS(=O)(=O)c1ccc(C)cc1)C2=O; assay: ERNM O-demethylation enzyme kinetics in recombinant CYP1A1; assay type: biochemical, human; details: other: CYP1A1 5 nM, ERNM 1-200 μM, 30 min, fluorescence 558 nm; pH 7.4; 37.0 °C
Method: as §2

[5] = substrate: COc1ccc2c3c(cccc13)C(=O)N(CCNS(=O)(=O)c1ccc(C)cc1)C2=O; assay: ERNM O-demethylation enzyme kinetics in recombinant CYP1A2; assay type: biochemical, human; details: other: CYP1A2 5 nM, ERNM 1-200 μM, 30 min, fluorescence 558 nm; pH 7.4; 37.0 °C
Method: as §2

[6] = substrate inhibition constant, Table S1

O[C@@H](CS)[C@@H](O)CS (racemic) [DTT, dithiothreitol]
Time at which CYP1A activity reached the peak (A549 cells [1]): 2 h

COc1ccc2c3c(cccc13)C(=O)N(CCNS(=O)(=O)c1ccc(C)cc1)C2=O [ERNM]
Vmax for demethylation catalyzed by CYP1A1 (CYP1A1; CYP1A1 5 nM, ERNM 1-200 μM, 30 min): 1.92 ± 0.04 nmol/min/nmol P450 | Kinetic behavior of CYP1A1 mediated demethylation (CYP1A1; kinetic plot, Figure S5): kinetics of substrate inhibition | Ksi of ERNM O-demethylation in CYP1A1 (CYP1A1; [6]): 611.3 ± 93.8 µM | Selectivity of fluorescence response among CYP isoenzymes [2]: CYP1A1/1A2 mediated the generation of fluorescence signals at 558 nm over other CYP isoenzymes | Subcellular localization (overlap with ER-Tracker) (A549 cells [3]): exclusively target the ER | Vmax for demethylation catalyzed by CYP1A2 (CYP1A2; CYP1A2 5 nM, ERNM 1-200 μM, 30 min): 3.32 ± 0.15 nmol/min/nmol P450 | Kinetic behavior of CYP1A2 mediated demethylation (CYP1A2; kinetic plot, Figure S5): kinetics of substrate inhibition | Ksi of ERNM O-demethylation in CYP1A2 (CYP1A2; [6]): 281.2 ± 50.2 µM

O=c1cc(-c2ccccc2)oc2c1ccc1ccccc12 [α-naphthoflavone]
Effect on generation of the ERNM fluorescence signal in human liver microsomes (CYP1A): sufficiently suppressed

B1: CYP1A1 (Homo sapiens) (protein)
chain: MLFPISMSATEFLLASVIFCLVFWVIRASRPQVPKGLKNPPGPWGWPLIGHMLTLGKNPHLALSRMSQQYGDVLQIRIGSTPVVVLSGLDTIRQALVRQGDDFKGRPDLYTFTLISNGQSMSFSPDSGPVWAARRRLAQNGLKSFSIASDPASSTSCYLEEHVSKEAEVLISTLQELMAGPGHFNPYRYVVVSVTNVICAICFGRRYDHNHQELLSLVNLNNNFGEVVGSGNPADFIPILRYLPNPSLNAFKDLNEKFYSFMQKMVKEHYKTFEKGHIRDITDSLIEHCQEKQLDENANVQLSDEKIINIVLDLFGAGFDTVTTAISWSLMYLVMNPRVQRKIQEELDTVIGRSRRPRLSDRSHLPYMEAFILETFRHSSFVPFTIPHSTTRDTSLKGFYIPKGRCVFVNQWQINHDQKLWVNPSEFLPERFLTPDGAIDKVLSEKVIIFGMGKRKCIGETIARWEVFLFLAILLQRVEFSVPLGVKVDMTPIYGLTMKHACCEHFQMQLRS
notes: purchased BD Biosciences (Woburn, MA, USA)
Km [4]: 1.0 ± 0.1 µM | kcat [4]: 1.92 ± 0.04 nmol/min/nmol P450

B2: CYP1A2 (Homo sapiens) (protein)
chain: MALSQSVPFSATELLLASAIFCLVFWVLKGLRPRVPKGLKSPPEPWGWPLLGHVLTLGKNPHLALSRMSQRYGDVLQIRIGSTPVLVLSRLDTIRQALVRQGDDFKGRPDLYTSTLITDGQSLTFSTDSGPVWAARRRLAQNALNTFSIASDPASSSSCYLEEHVSKEAKALISRLQELMAGPGHFDPYNQVVVSVANVIGAMCFGQHFPESSDEMLSLVKNTHEFVETASSGNPLDFFPILRYLPNPALQRFKAFNQRFLWFLQKTVQEHYQDFDKNSVRDITGALFKHSKKGPRASGNLIPQEKIVNLVNDIFGAGFDTVTTAISWSLMYLVTKPEIQRKIQKELDTVIGRERRPRLSDRPQLPYLEAFILETFRHSSFLPFTIPHSTTRDTTLNGFYIPKKCCVFVNQWQVNHDPELWEDPSEFRPERFLTADGTAINKPLSEKMMLFGMGKRRCIGEVLAKWEIFLFLAILLQQLEFSVPPGVKVDLTPIYGLTMKHARCEHVQARLRFSIN
notes: as for B1
Km [5]: 2.9 ± 0.5 µM | kcat [5]: 3.32 ± 0.15 nmol/min/nmol P450
